Data published in US10239887B2, “Positive allosteric modulators of the muscarinic acetylcholine receptor M4” (Vanderbilt University, priority 2016, dated 2019).
Where a name gives a salt, the structure may show the parent alone.

Target: T1, human mAChR M4 (Homo sapiens, UniProt P08173)
T1 sequence (P08173 1-479): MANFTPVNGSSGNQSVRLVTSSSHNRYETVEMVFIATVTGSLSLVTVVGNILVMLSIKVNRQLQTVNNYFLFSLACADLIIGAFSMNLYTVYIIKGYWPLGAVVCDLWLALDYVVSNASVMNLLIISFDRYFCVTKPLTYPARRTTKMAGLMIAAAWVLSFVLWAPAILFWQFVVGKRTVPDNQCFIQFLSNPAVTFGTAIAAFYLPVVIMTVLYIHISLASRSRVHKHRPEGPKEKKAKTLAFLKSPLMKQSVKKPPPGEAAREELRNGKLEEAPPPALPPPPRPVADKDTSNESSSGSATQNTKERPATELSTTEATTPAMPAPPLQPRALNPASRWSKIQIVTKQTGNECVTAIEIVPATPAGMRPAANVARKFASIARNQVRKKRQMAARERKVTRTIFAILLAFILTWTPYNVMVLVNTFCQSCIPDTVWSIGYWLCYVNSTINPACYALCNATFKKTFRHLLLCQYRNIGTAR
Assay: mAChR M4 cell-based functional assay (calcium flux), human M4
Conditions: for Emax: % ACh maximum at 30 μM

[1] = Human M4 EC50 (nM), Table 10, calcium flux, PAM activity with EC20 acetylcholine
[2] = Human M4 EC50 (nM), Table 11, calcium flux, PAM activity with EC20 acetylcholine

Row | SMILES | EC50 [1] | Emax (Table 10) | further results
1 | Cc1nc2sc3c(NCc4ccc(C(C)(C)O)cc4F)ncnc3c2c(C)c1Cl [Compound 279, 2-[4-[[(8-chloro-7,9-dimethyl-pyrido [3′,2′:4,5]thieno[3,2-d]pyrimidin-4-yl)amino]methyl]-3-fluoro-phenyl] propan-2-ol] | 6020 nM | 49.4% | –
2 | [2H]C([2H])([2H])OC(C)(C)c1ccc(CNc2ncnc3c2sc2nnc(C)c(C)c23)cc1 [Compound 370, 3,4-dimethyl-N-[[4-[1-methyl-1-(trideuteriomethoxy)ethyl]phenyl]methyl] pyrimido[4′,5′:4,5]thieno [2,3-c]pyridazin-8-amine] | – | – | EC50 [2]: 326 nM; Emax (Table 11): 93.1%
3 | Cc1nnc2sc3c(NCc4ccc(C(C)(C)N)cc4)ncnc3c2c1C [Compound 371, N-[[4-(1-amino-1-methyl-ethyl)phenyl]methyl]-3,4-dimethyl-pyrimido[4′,5′:4,5] thieno[2,3-c]pyridazin-8-amine] | – | – | EC50 [2]: 41.6 nM; Emax (Table 11): 93.6%
4 | Cc1c(Cl)nnc2sc3c(NC4CN(c5ncc(C(F)(F)F)cn5)C4)ncnc3c12 [Compound 214, 3-chloro-4-methyl-N-[1-[5-(trifluoromethyl)pyrimidin-2-yl]azetidin-3-yl] pyrimido[4′,5′:4,5] thieno[2,3-c]pyridazin-8-amine] | 420 nM | 105% | –
5 | Cc1nnc2sc3c(N4CCC(Oc5ccncc5)(C(F)(F)F)C4)ncnc3c2c1C (stereo not drawn) [Compound 366, 3,4-dimethyl-8-[3-(4-pyridyloxy)-3-(trifluoromethyl)pyrrolidin-1-yl]pyrimido[4′,5′:4,5]thieno[2,3-c]pyridazine dihydrochloride] | – | – | EC50 [2]: 1360 nM; Emax (Table 11): 77.7%
6 | Cc1nnc2sc3c(NC4CN(c5ncc(Cl)cc5F)C4)ncnc3c2c1C [Compound 315, N-[1-(5-chloro-3-fluoro-2-pyridyl)azetidin-3-yl]-3,4-dimethyl-pyrimido[4′,5′:4,5]thieno [2,3-c]pyridazin-8-amine] | – | – | EC50 [2]: 659 nM; Emax (Table 11): 74.9%
7 | Cc1nnc2sc3c(NCc4ccc(F)c(C(=O)NC5CC(F)(F)C5)c4)ncnc3c2c1C [Compound 184, N-(3,3-difluorocyclobutyl)-5-[[(3,4-dimethylpyrimido [4′,5′:4,5]thieno[2,3-c]pyridazin-8-yl)amino]methyl]-2-fluoro-benzamide] | 340 nM | 107% | –
8 | Cc1nnc2sc3c(NCc4ccc(C(=O)N5CCC(F)(F)CC5)cc4)ncnc3c2c1C [Compound 130, (4,4-difluoro-1-piperidyl)-[4-[[(3,4-dimethylpyrimido [4′,5′:4,5]thieno[2,3-c]pyridazin-8-yl)amino]methyl]phenyl]methanone] | 724 nM | 93.2% | –
9 | Cc1nnc2sc3c(NCc4ccc(C(=O)NC5(C)CC5)cc4)ncnc3c2c1C [Compound 149, 4-[[(3,4-dimethylpyrimido [4′,5′:4,5]thieno[2,3-c]pyridazin-8-yl)amino]methyl]-N-(1-methylcyclopropyl) benzamide] | 156 nM | 78.3% | –
10 | Cc1nnc2sc3c(N4CC(Oc5ccccc5)C4)ncnc3c2c1C [Compound 33, 3,4-dimethyl-8-(3-phenoxyazetidin-1-yl) pyrimido[4′,5′:4,5]thieno [2,3-c]pyridazine] | – | – | Emax (Human M4): 54%; EC50 (Human M4 EC50, CHO-K1 hM4-Gqi5 cells, calcium flux, increase in EC20 acetylcholine response): 4430 nM
11 | Cc1cc(C)c2c(n1)sc1c(NCc3ccc(OC(F)F)nc3)ncnc12 [Compound 203, N-[[6-(difluoromethoxy)-3-pyridyl]methyl]-7.9-dimethyl-pyrido[3′,2′:4,5] thieno[3,2-d]pyrimidin-4-amine] | 4010 nM | 44.5% | –
12 | Cc1ncc(CN2CC3(CC(Nc4ncnc5c4sc4nnc(C)c(C)c45)C3)C2)cn1 [Compound 166, 3,4-dimethyl-N-[2-[(2-methylpyrimidin-5-yl)methyl]-2-azaspiro [3.3]heptan-6-yl]pyrimido [4′,5′:4,5]thieno[2,3-c] pyridazin-8-amine] | 1210 nM | 34.7% | –
13 | Cc1nnc2sc3c(NCc4ccc(C(=O)N5CCOCC5)cc4)ncnc3c2c1C [Compound 123, [4-[[(3,4-dimethylpyrimido [4′,5′:4,5]thieno[2,3-c]pyridazin-8-yl)amino]methyl]phenyl]-morpholino-methanone] | 548 nM | 87.2% | –
14 | Cc1nnc2sc3c(NC4CN(c5ncc(C6CC6)cc5Cl)C4)ncnc3c2c1C [Compound 82, N-[1-(3-chloro-5-cyclopropyl-2-pyridyl)azetidin-3-yl]-3,4-dimethyl-pyrimido [4′,5′:4,5]thieno[2,3-c] pyridazin-8-amine] | – | 50.1% | EC50 (Human M4 EC50 (nM), Table 10, unit μM (bounds)): > 10000 nM
15 | Cc1nnc2sc3c(NCc4ccc(F)c(C(=O)NC5CCC5)c4)ncnc3c2c1C [Compound 177, N-cyclobutyl-5-[[(3,4-dimethylpyrimido [4′,5′:4,5]thieno[2,3-c]pyridazin-8-yl)amino]methyl]-2-fluoro-benzamide] | 570 nM | 98.5% | –
16 | Cc1nnc2sc3c(NCc4ccc(-c5ccn(C)n5)cc4)ncnc3c2c1C [Compound 192, 3,4-dimethyl-N-[[4-(1-methylpyrazol-3-yl)phenyl]methyl]pyrimido [4′,5′:4,5]thieno[2,3-c] pyridazin-8-amine] | 851 nM | 85.9% | –
17 | COc1ccc(CNc2ncnc3c2sc2nnc(C)c(C)c23)cc1F [Compound 27, N-(3-fluoro-4-methoxybenzyl)-3,4-dimethylpyrimido [4′,5′:4,5]thieno[2,3-c] pyridazin-8-amine] | – | – | Emax (Human M4): 62%
18 | CC(=O)NC1CN(c2ncnc3c2sc2nnc(C)c(C)c23)C1 [Compound 96, N-[1-(3,4-dimethylpyrimido [4′,5′:4,5]thieno[2,3-c]pyridazin-8-yl)azetidin-3-yl]acetamide] | 830 nM | 60.3% | –

More lines, main results first:

Row | EC50 [1] | Emax (Table 10) | SMILES | further results
19 | 748 nM | 31% | Cc1nnc2sc3c(N4CCC(C(=O)Nc5ccccn5)C4)ncnc3c2c1C (stereo not drawn) [Compound 174, 1-(3,4-dimethylpyrimido [4′,5′:4,5]thieno[2,3-c]pyridazin-8-yl)-N-(2-pyridyl)pyrrolidine-3-carboxamide] | –
20 | 84.3 nM | 80.1% | Cc1nnc2sc3c(N4CC(Nc5ccnc(F)c5F)C4)ncnc3c2c1C [Compound 161, N-[1-(3,4-dimethylpyrimido[4′,5′:4,5]thieno[2,3-c]pyridazin-8-yl)azetidin-3-yl]-2,3-difluoro-pyridin-4-amine; 2,2,2-trifluoroacetic acid] | –
21 | 2950 nM | 39.5% | Cc1nnc2sc3c(NC4CC5(C4)CN(C(=O)c4ccc(C(F)(F)F)cc4)C5)ncnc3c2c1C [Compound 172, [6-[(3,4-dimethylpyrimido [4′,5′:4,5]thieno[2,3-c]pyridazin-8-yl)amino]-2-azaspiro[3.3]heptan-2-yl]-[4-(trifluoromethyl)phenyl]methanone] | –
22 | 341 nM | 66.5% | Cc1cc(C)c2c(n1)sc1c(N3CC(c4ccncc4)C3)ncnc12 [Compound 201, 7,9-dimethyl-4-[3-(4-pyridyl)azetidin-1-yl] pyrido[3′,2′:4,5]thieno [3,2-d]pyrimidine] | –
23 | 122 nM | 80.3% | Cc1nnc2sc3c(N4CC(O)(C5CC5)C4)ncnc3c2c1C [Compound 103, 3-cyclopropyl-1-(3,4-dimethylpyrimido [4′,5′:4,5]thieno[2,3-c]pyridazin-8-yl)azetidin-3-ol] | –
